Columns and labels:
[1] = tested on: Hepatitis C virus; assay: Antiviral activity against HCV genotype 1a expressing NS5A Y93H mutant by replicon assay; type: functional, organism-based, Hepacivirus hominis; details: subtype 1a
[2] = tested on: Hepatitis C virus; assay: Antiviral activity against HCV genotype 2b by replicon assay; type: functional, organism-based, Hepacivirus hominis
[3] = tested on: Hepatitis C virus; assay: Antiviral activity against HCV genotype 1b by replicon assay; type: functional, organism-based, Hepacivirus hominis
[4] = tested on: Hepatitis C virus; assay: Antiviral activity against HCV genotype 3a by replicon assay; type: functional, organism-based, Hepacivirus hominis
[5] = tested on: Hepatitis C virus; assay: Antiviral activity against HCV genotype 1a by replicon assay; type: functional, organism-based, Hepacivirus hominis; details: subtype 1a
[6] = tested on: Hepatitis C virus; assay: Antiviral activity against HCV genotype 2a by replicon assay; type: functional, organism-based, Hepacivirus hominis
[7] = biological target: T1, Nuclear receptor subfamily 1 group I member 2 (Homo sapiens, UniProt O75469); assay: Activation of PXR (unknown origin); type: ADME
T1 sequence (O75469 whole entry): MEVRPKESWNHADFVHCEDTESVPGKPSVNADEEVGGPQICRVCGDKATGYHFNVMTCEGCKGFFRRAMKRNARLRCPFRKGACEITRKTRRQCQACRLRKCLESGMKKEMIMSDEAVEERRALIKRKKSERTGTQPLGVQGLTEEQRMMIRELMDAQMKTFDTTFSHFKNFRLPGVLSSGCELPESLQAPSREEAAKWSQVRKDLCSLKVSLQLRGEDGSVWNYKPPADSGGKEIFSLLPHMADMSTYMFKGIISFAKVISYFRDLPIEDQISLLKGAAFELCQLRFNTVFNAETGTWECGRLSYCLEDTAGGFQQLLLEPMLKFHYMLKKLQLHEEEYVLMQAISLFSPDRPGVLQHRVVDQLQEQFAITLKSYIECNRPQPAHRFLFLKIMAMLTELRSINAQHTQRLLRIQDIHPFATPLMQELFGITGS

SMILES: COC(=O)N[C@H](C(=O)N1CCC[C@H]1c1ncc(-c2ccc(-c3cc4cc(-c5cnc([C@@H]6CCCN6C(=O)[C@@H](NC(=O)OC)C(C)C)[nH]5)ccc4o3)cc2)[nH]1)C(C)C
- EC50 [1]: 24 nM
- EC50 [2]: 286 nM
- EC50 [3]: 0.001 nM
- EC50 [4]: 4 nM
- EC50 [5]: 0.01 nM
- EC50 [6]: 0.4 nM
- EC50 [7]: 3300 nM

Source: ChEMBL document CHEMBL3763064, “Discovery of silyl proline containing HCV NS5A inhibitors with pan-genotype activity: SAR development” (Bioorg Med Chem Lett, 2016)
